Series [1] deals with T1, (human) A2A adenosine receptor (Homo sapiens, UniProt P29274).
T1 construct: purchased PerkinElmer Research Products (Boston, Mass.); host or cells: HEK-293 cells, stably transfected; membrane preparation
In words: Radioligand binding test ([3H]CGS21680 displacement, hA2A HEK-293 cell membranes). To be noted: for IC50: [3H]-CGS 21680 25 nM, hA2A HEK-293 cell membrane, 25° C., 90 minutes, read-out: IC50 (nM), compounds binding to A2A adenosine receptor; for Ki: read-out: Ki (nM), inhibition constant for binding to A2A adenosine receptor. On the procedure: Cell membranes stably transfected with (human) A2A adenosine receptor were prepared in HEK-293 cells. The cell membranes were obtained from PerkinElmer Research Products (Boston, Mass.).
CGS 21680 (2-[p-(2-carboxyethyl)phenylethylamino]-5′-ethylcarboxamidoadenosine) was purchased from Selleck (Shanghai, CN).
The A2A adenosine receptors used were all expressed in the cell membranes. The compound was diluted 3 times serially with DMSO (Solarbio, D8371-250 ml) to generate compound source plates with 10 different concentrations (10 μM, 3.3 μM, 1.1 μM, 0.37 μM, 0.12 μM, 0.0412 μM, 0.0137 μM, 0.0046 μM, 0.0015 μM, 0.0005 μM), 250 nL of compound was added to 384-well Opti-plate, sealed with parafilm. […] (final 25 nM) was added to the diluted cell membrane and mixed well. 50 μL of the prepared dilution solution of cell membrane was transferred to the 384-well Opti-plate containing compound and incubated at 25° C. for 90 minutes. 100 μL of 0.5% Polyethyleneimine solution (PEI) was added to […]-96 GF/B filter plate, and soaked for 90 minutes at 4° C., then 500 μL of washing buffer/well (50 mM Tris-HCl, pH 7.4, 154 mM NaCl) was transferred with Cell Harvester to wash the […]-96 GF/B filter plate twice. The mixed system in the Opti-plate was transferred to the washed […]-96 GF/B filter plate, 500 μL of washing buffer/well (50 mM Tris-HCl, pH 7.4, 154 mM NaCl) was used to wash the […]-96 GF/B filter plate 9 times. Incubation was performed at 37° C. for 3 minutes. 40 μL of ULTIMA GOLD scintillation solution (Perkin Elmer, Cat #77-16061) was added to each well, CPM (count per minute) value was read by a MicroBeta liquid scintillation counter (PerkinElmer).

The target of series [2] is human adenosine receptor A2A (Homo sapiens, UniProt P29274). In words: A2A adenosine receptor cAMP test (LANCE Ultra cAMP, hADORA2A-HEK293 cells). It is filed as cell-based. The source says:
A2A Adenosine Receptor cAMP Test
Experimental reagents and consumables: DMEM/F12, G418, Penicillin-Streptomycin, Versene Solution, HEPES, Hank's Buffered Saline Solution, PBS (pH 7.4, 1×, sterile), FBS, BSA Stabilizer 7.5%, Rolipram, NECA were separately purchased from Gibico, Hyclone and Sigma. LANCE® Ultra cAMP kit (Eu-cAMP tracer, Ulight-anti-cAMP reagent, cAMP detection buffer) and hADORA2A-HEK293 cells were purchased from PerkinElmer Research Products (Boston, Mass.). All other reagents were of analytical grade and obtained from commercial sources. 384-well polypropylene microplate and 384-well solid white plate were purchased from Labcyte and Corning, respectively.
Experimental instruments: TECAN automated liquid handling workstation, Echo Acoustic Liquid Handler and EnVison multimode plate reader were purchased from TECAN, Labcyte and […], respectively.
The cells stably expressing human adenosine receptor A2A (hADORA2A-HEK293 cells) were cultured in DMEM/F12 medium containing 10% FBS, 1× Penicillin-Streptomycin and 400 μg/ml G418 in a 37° C. and 5% CO2 environment. Before the experiment, the cells were digested with Versene solution, and the cells were collected by centrifugation at 200 g and room temperature for 5 minutes, and finally resuspended with assay buffer (Hank's buffered saline solution, containing 5 mM HEPES, 0.1% BSA stabilizer and 10 μM Rolipram, pH 7.4). The TECAN automated liquid handling workstation was used to dilute the compound in a 384-well polypropylene microplate with DMSO to 11 concentration points in a 3-fold gradient to prepare the compound source plate, in which the 11 concentration points of the compound were 10 mM, 3.33 mM, 1.11 mM., 0.37 mM, 0.12 mM, 0.041 mM, 0.013 mM, 4.57×10^−3 mM, 1.52×10^−3 mM, 5×10−4 mM and 1.7×10^−4 mM. The Echo Acoustic Liquid Handler (Labcyte) was used to transfer the test compound from the compound source plate to an assay plate, in which the transfer volume of the compound was 10 nl/well. The hADORA2A-HEK293 cell suspension was diluted with assay buffer to 30,000 cells/ml, and the cell suspension was transferred to the assay plate at a volume of 10 μl/well (300 cells/well). The assay plate was centrifuged at 150 g for 1 minute and pre-incubated at room temperature for 30 minutes. The Eu-cAMP tracer working solution (Eu-cAMP tracer 40 μl, cAMP detection buffer 1.96 ml) (5 μl/well) was added to the assay plate, and then the Ulight-anti-cAMP working solution (13 μl of Ulight-anti-cAMP reagent and 1.95 ml of cAMP detection buffer) (5 μl/well) was added to the assay plate. The assay plate was rotated at 150 g for 30 seconds and incubated at room temperature for 30 minutes. The EnVison multimode plate reader (PerkinElmer) was used determine the level of cyclic adenosine monophosphate in the final solution (λex=320 nm, λem=665 nm & 615 nm). The EC50 (nM) value of the compound interacting with the A2A adenosine receptor to stimulate the production of cyclic adenosine monophosphate was calculated and the titer of the compound function was expressed as the EC50 (nM) value.
When the test compounds interacted with A2AAR, the EC50 (nM) values for stimulating the production of cyclic AMP were shown in Table 2.

The mark [3] stands for this setting: stimulating the production of cyclic AMP, read-out: cAMP EC50.
Setting [4] is: stimulating the production of cyclic adenosine monophosphate, read-out: cAMP EC50 values.

Read-outs that look alike come from different tables or passages of the source.

Sequence of human adenosine receptor A2A (P29274 whole entry): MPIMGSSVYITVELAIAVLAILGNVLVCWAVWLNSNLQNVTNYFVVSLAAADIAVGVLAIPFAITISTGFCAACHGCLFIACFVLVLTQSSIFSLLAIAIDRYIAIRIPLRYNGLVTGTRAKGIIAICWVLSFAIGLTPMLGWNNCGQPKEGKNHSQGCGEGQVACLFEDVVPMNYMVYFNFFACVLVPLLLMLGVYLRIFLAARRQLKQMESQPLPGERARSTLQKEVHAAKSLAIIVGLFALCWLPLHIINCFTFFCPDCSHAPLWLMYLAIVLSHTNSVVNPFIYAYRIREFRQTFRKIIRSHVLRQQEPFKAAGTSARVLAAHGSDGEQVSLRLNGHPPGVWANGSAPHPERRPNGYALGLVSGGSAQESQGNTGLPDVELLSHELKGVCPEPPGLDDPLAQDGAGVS
T1 sequence (P29274 whole entry): as above

In the case of `OC[C@H]1O[C@@H](n2cnc3c2ncn2c(-c4ccc(OCc5ccc(F)cc5)cc4)nnc32)[C@H](O)[C@@H]1O` [Compound 4, (2R,3R,4S,5R)-2-{3-{4-[(4-fluorobenzyl)oxy]phenyl}-7H-[1,2,4]triazolo[3,4-i]purin-7-yl}-5-(hydroxymethyl)tetrahydrofuran-3,4-diol], the melting point (commonly the temperature, or range, at which the solid turns liquid) worked out at 112 °C. Further, in series [1], the concentration for half-maximal inhibition (IC50) (commonly the point on the concentration scale where inhibition reaches its midpoint) turned out to be 3.9 nM and the Ki (usually a measure of affinity in units of concentration, obtained from inhibition or displacement) was determined as 1.8 nM. Further, in series [2], the “agonistic activity at hA2AAR (cAMP production)” value (“agonistic activity at hA2AAR” below) is recorded as “no agonistic activity”. In addition, the 50% effective concentration (EC50) (as a rule, the concentration needed to bring the measured effect to its halfway point) in series [2] (setting [3]) was over 10 µM. Further, the EC50 in series [2] (setting [4]) is over 10 µM.
`CCCOc1ccc(-c2nnc3c4ncn([C@@H]5O[C@H](CO)[C@H](O)[C@@H]5O)c4ncn23)cc1` [Compound 9, (2R,3S,4R,5R)-2-{3-(4-propoxyphenyl)-7H-[1,2,4]triazolo[3,4-i]purin-7-yl}-5-(hydroxymethyl)tetrahydrofuran-3,4-diol] yielded a melting point of 118 °C. Further, in series [1], the IC50 is 4.3 nM and the Ki was 2 nM. Moreover, the “agonistic activity at hA2AAR” value in series [2] is recorded as “no agonistic activity”. For the same molecule, the EC50 in series [2] (setting [3]) is over 10 µM. Further, the EC50 in series [2] (setting [4]) is over 10 µM.
`OC[C@H]1O[C@@H](n2cnc3c2ncn2c(C4CCCCC4)nnc32)[C@H](O)[C@@H]1O` [Compound 13, (2R,3R,4S,5R)-2-{3-cyclohexyl-7H-[1,2,4]triazolo[3,4-i]purin-7-yl}-5-(hydroxymethyl)tetrahydrofuran-3,4-diol] registered a melting point of 130 °C. In series [1], the IC50 is over 10000 nM and the Ki is over 10000 nM.
Regarding `OC[C@H]1O[C@@H](n2cnc3c2ncn2c(-c4ccc(C(F)(F)F)cc4C(F)(F)F)nnc32)[C@H](O)[C@@H]1O` [Compound 6, (2R,3R,4S,5R)-2-{3-[2,4-di(trifluoromethyl)phenyl]-7H-[1,2,4]triazolo[3,4-i]purin-7-yl}-5-(hydroxymethyl)tetrahydrofuran-3,4-diol], in series [1], the half-inhibitory concentration (IC50) was over 10000 nM and the Ki is over 10000 nM.
`OC[C@H]1O[C@@H](n2cnc3c2ncn2c(-c4cncs4)nnc32)[C@@H](O)[C@H]1O` [Compound 12, (2R,3S,4R,5R)-2-{3-(thiazol-5-yl)-7H-[1,2,4]triazolo[3,4-i]purin-7-yl}-5-(hydroxymethyl)tetrahydrofuran-3,4-diol]: the melting point was 216 °C. Also, in series [1], the IC50 is 3.9 nM and the Ki was determined as 1.8 nM. Further, the “agonistic activity at hA2AAR” value in series [2] is recorded as “no agonistic activity”. Further, the EC50 in series [2] (setting [3]) was over 10 µM. For the same molecule, the EC50 in series [2] (setting [4]) is over 10 µM.
`OC[C@H]1O[C@@H](n2cnc3c2ncn2c(-c4ccc(C(F)(F)F)cc4)nnc32)[C@@H](O)[C@H]1O` [Compound 10, (2R,3S,4R,5R)-2-{3-[4-(trifluoromethyl)phenyl]-7H-[1,2,4]triazolo[3,4-i]purin-7-yl}-5-(hydroxymethyl)tetrahydrofuran-3,4-diol] came in with a melting point of 124 °C. Further, in series [1], the IC50 was over 10000 nM and the Ki was over 10000 nM.
On to `OC[C@H]1O[C@@H](n2cnc3c2ncn2c(-c4ccc(Br)cn4)nnc32)[C@H](O)[C@@H]1O` [Compound 11, (2R,3R,4S,5R)-2-{3-(5-bromopyridin-2-yl)-7H-[1,2,4]triazolo[3,4-i]purin-7-yl}-5-(hydroxymethyl)tetrahydrofuran-3,4-diol], for which the melting point is 222 °C. In series [1], the IC50 is over 10000 nM and the inhibitory constant (Ki) is over 10000 nM.
The molecule `OC[C@H]1O[C@@H](n2cnc3c2ncn2c(-c4ccc(OCc5ccccc5)c(OCc5ccccc5)c4)nnc32)[C@H](O)[C@@H]1O` [Compound 3, (2R,3R,4S,5R)-2-{3-[3,4-di(benzyloxy)phenyl]-7H-[1,2,4]triazolo[3,4-i]purin-7-yl}-5-(hydroxymethyl)tetrahydrofuran-3,4-diol] registered a melting point of 116 °C. Also, in series [1], the IC50 is over 10000 nM and the Ki is over 10000 nM.
Turning to `OC[C@H]1O[C@@H](n2cnc3c2ncn2c(C4CCCC4)nnc32)[C@H](O)[C@@H]1O` [Compound 2, (2R,3R,4S,5R)-2-{3-cyclopentyl-7H-[1,2,4]triazolo[3,4-i]purin-7-yl}-5-(hydroxymethyl)tetrahydrofuran-3,4-diol], the melting point was 84 °C. In series [1], the IC50 came to 3.9 nM and the Ki is 1.8 nM. Further, the “agonistic activity at hA2AAR” value in series [2] is recorded as “no agonistic activity”. Further, in series [2] (setting [3]), the EC50 is over 10 µM. For the same molecule, the EC50 in series [2] (setting [4]) is over 10 µM.
Consider `OC[C@H]1O[C@@H](n2cnc3c2ncn2c(-c4ccc(-c5ccccn5)cc4)nnc32)[C@@H](O)[C@H]1O` [Compound 7, (2R,3S,4R,5R)-2-{3-[4-(pyridin-2-yl)phenyl]-7H-[1,2,4]triazolo[3,4-i]purin-7-yl}-5-(hydroxymethyl)tetrahydrofuran-3,4-diol], for which the melting point turned out to be 172 °C. In series [1], the half-inhibitory concentration (IC50) was over 10000 nM and the Ki is over 10000 nM.
Regarding `OC[C@H]1O[C@@H](n2cnc3c2ncn2c(-c4ccc(-c5ccccc5)cc4)nnc32)[C@H](O)[C@@H]1O` [Compound 8, (2R,3R,4S,5R)-2-{3-{[1,1′-biphenyl]-4-yl}-7H-[1,2,4]triazolo[3,4-i]purin-7-yl}-5-(hydroxymethyl)tetrahydrofuran-3,4-diol], the melting point turned out to be 280 °C. In series [1], the IC50 stood at 7510 nM and the Ki turned out to be 3510 nM.
The molecule `CC(=O)Nc1ccc(-c2nnc3c4ncn([C@@H]5O[C@H](CO)[C@@H](O)[C@H]5O)c4ncn23)cc1` [Compound 1, N-{4-{7-[(2R,3R,4S,5R)-3,4-dihydroxy-5-(hydroxymethyl)tetrahydrofuran-2-yl]-7H-[1,2,4]triazolo[3,4-i]purin-3-yl}phenyl}acetamide] had a melting point of 132 °C. In addition, in series [1], the IC50 stood at 6.4 nM and the Ki turned out to be 3 nM. Moreover, in series [2], the “agonistic activity at hA2AAR” value was “no agonistic activity”. Moreover, the half-maximal effective concentration (EC50) in series [2] (setting [3]) was over 10 µM. Moreover, in series [2] (setting [4]), the EC50 was over 10 µM.

These data come from patent publication US20220363710A1, “SMALL-MOLECULE COMPOUND HAVING A2A ADENOSINE RECEPTOR ANTAGONISM” (ACADEMY OF MILITARY MEDICAL SCIENCES, priority 2019, published 2022).
